# Assay results reported in patent EP0802184B1, “N-Benzyl-2-phenylindoles as estrogenic agents” (Wyeth, priority 1996, dated 1997).
# Experiments:
# estrogen receptor [1] = target: T1, estrogen receptor (Homo sapiens, UniProt P03372); assay: 2X VIT ERE Transfection Assay (Infection Luciferase Assay); assay type: cell-based; settings: 24 h
# T1 sequence (P03372 1-595): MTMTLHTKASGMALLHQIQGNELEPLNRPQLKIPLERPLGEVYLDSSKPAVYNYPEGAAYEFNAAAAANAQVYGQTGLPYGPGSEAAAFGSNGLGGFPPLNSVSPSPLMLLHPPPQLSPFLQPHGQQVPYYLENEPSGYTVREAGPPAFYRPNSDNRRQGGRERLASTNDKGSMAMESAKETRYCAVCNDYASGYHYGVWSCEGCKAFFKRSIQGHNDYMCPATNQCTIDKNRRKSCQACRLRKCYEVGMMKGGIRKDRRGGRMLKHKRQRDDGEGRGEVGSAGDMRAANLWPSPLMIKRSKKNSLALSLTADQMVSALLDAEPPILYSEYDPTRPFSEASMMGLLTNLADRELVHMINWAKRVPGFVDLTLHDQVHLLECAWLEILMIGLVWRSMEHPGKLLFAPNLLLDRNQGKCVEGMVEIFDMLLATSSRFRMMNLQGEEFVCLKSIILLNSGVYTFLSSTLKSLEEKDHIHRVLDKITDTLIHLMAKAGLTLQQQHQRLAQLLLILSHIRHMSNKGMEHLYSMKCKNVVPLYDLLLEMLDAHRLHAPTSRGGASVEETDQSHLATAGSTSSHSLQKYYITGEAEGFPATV
# Experimental: Chinese Hamster Ovary cells (CHO) which had been stably transfected with the human estrogen receptor were maintained in DMEM + 10% fetal bovine serum (FBS). 48h prior to treatment the growth medium was replaced with DMEM lacking phenol red + 10% dextran coated charcoal stripped FBS (treatment medium). Cells were plated at a density of 5000 cells/well in 96-well plates containing 200 µL of medium/well.
# Reporter DNA (Promega plasmid pGL2 containing two tandem copies of the vitellogenin ERE in front of the minimal thymidine kinase promoter driving the luciferase gene) was combined with the B-galactosidase expression plasmid pCH110 (Pharmacia) and carrier DNA (pTZ18U) in the following ratio: • 10uG of reporter DNA • 5uG of pCH110DNA • 5 uG of pTZ18U • 20 uG of DNA/1 mL of transfection solution
# 20 uL of this mixture was added to each well of cells and remained on the cells for 16 h. […] Each treatment condition was performed on 8 wells (n=8) which were incubated for 24 h prior to the luciferase assay.
# After removing the PBS, 25 uL of Promega lysis buffer was added to each well and allowed to stand at room temperature for 15 min, followed by 15 min at -80°C and 15 min at 37°C. 20 uL of lysate was transferred to an opaque 96 well plate for luciferase activity evaluation and the remaining lysate (5 uL) was used for the B-galactosidase activity evaluation (normalize transfection). The luciferan substrate (Promega) was added in 100 uL aliquots to each well automatically by the luminometer and the light produced (relative light units) was read 10 seconds after addition.
# To the remaining 5 uL of lysate 45 uL of PBS was added. Then 50 uL of Promega B-galactosidase 2X assay buffer was added, mixed well and incubated at 37°C for 1 hour. A plate containing a standard curve (0.1 to 1.5 milliunits in triplicate) was set up for each experimental run. The plates were analyzed on a Molecular Devices spectrophotometric plate reader at 410 nm. The optical densities for the unknown were converted to milliunits of activity by mathematical extrapolation from the standard curve.
# The luciferase data was generated as relative light units (RLUs) accumulated during a 10 second measurement and automatically transferred to a JMP (SAS Inc) file where background RLUs were subtracted. The B-galactosidase values were automatically imported into the file and these values were divided into the RLUs to normalize the data. The mean and standard deviations were determined from a n=8 for each treatment. […] These techniques are described by Tzukerman, M.T., Esty, A., Santiso-Mere, D., Danielian, P., Parker, M.G., Stein, R.B., Pike, J.W. and McDonnel, D.P. (1994). Human estrogen receptor transactivational capacity was determined by both cellular and promoter context and mediated by two functionally distinct intramolecular regions (see Molecular Endocrinology, 8:21-30).
# Ishikawa cells = assay: Ishikawa Cell Alkaline Phosphatase Assay; assay type: cell-based, human; settings: 48 h
# Experimental: Cells were treated for 48 h prior to assay. […] Sample population for at each dose was n=8. […] Plates are placed at -80°C for a minimum of 15 minutes. Plates are thawed at 37°C followed by the addition of 150μL of 0.1 M Tris-HCl, pH 9.8, containing 4 mM para-nitrophenylphosphate (pNPP) to each well (final concentration, 3 mM pNPP). Absorbance and slope calculations were made using the […] Application program (Bio-Tek Instruments, Inc., Winooski, VT). […] Various compounds were assayed for estrogenic activity by the alkaline phosphatase method and corresponding ED50 values (95% C.I.) were calculated. The four listed in the following were used as reference standards: A description of such methods is provided by Holinka, […]., Kuramoto, H. and Gurpide, E. (1986) Effects of steroid hormones and antisteroids on alkaline phosphatase activity in human endometrial cancer cells (Ishikawa Line). Cancer Research, 46:2771-2774, and by […]. and by […] simple and sensitive microtiter plate estrogen bioassay based on stimulation alkaline phosphatase in Ishikawa cells; […] Endocrinology, 6:2757-2762.
# estrogen receptor [2] = target: T1, estrogen receptor; assay: In vitro estrogen receptor binding assay (competition with [3H]-17β-estradiol); set-up: expressed in transfected cells; host or cells: CHO cells (ribosome-free cytosol); settings: relative to 17β-estradiol=100; cytosol of CHO cells overexpressing the estrogen receptor
# Experimental: CHO cells overexpressing the estrogen receptor were grown in 150 mm^2 dishes in DMEM + 10% dextran coated charcoal, stripped fetal bovine serum. The plates were washed twice with PBS and once with 10mM Tris-HCl, pH 7.4, 1mM EDTA. Cells were harvested by scraping the surface and then the cell suspension was placed on ice. Cells were disrupted with a hand-held motorized tissue grinder using two, 10-second bursts. The crude preparation was centrifuged at 12,000g for 20 minutes followed by a 60 minute spin at 100,000g to produce a ribosome free cytosol. The cytosol was then frozen and stored at -80°C. Protein concentration of the cytosol was estimated using the BCA assay with reference standard protein.
# 100uG/100uL of the receptor preparation was aliquoted per well. […] The plate was incubated at room temperature for 2.5 h. At the end of this incubation period 150 uL of ice-cold dextran coated charcoal (5% activated charcoal coated with 0.05% 69K dextran) was added to each well and the plate was immediately centrifuged at 99g for 5 minutes at 4°C. 200 uL of the supernatant solution was then removed for scintillation counting. Samples were counted to 2% or 10 minutes, whichever occurs first. […] Also, wells containing radioactivity but no cytosol were processed with charcoal to estimate unremovable DPM of [^3H]
# Counts per minute (CPM) of radioactivity were automatically converted to disintegrated per minute (DPM) by the Beckman LS 7500 Scintillation Counter using a set of quenched standards to generate a H# for each sample.
# For the generation of IC50 curves, % binding is plotted vs compound. […] For a description of these methods, see Hulme, E.C., ed. 1992. Receptor-Ligand Interactions: A Practical Approach. IRL Press, New York.(see especially chapter 8).
smiles,measurement,setting,value
"CNC(=O)/C=C/c1ccc(Cn2c(-c3ccc(O)cc3)c(C)c3cc(O)ccc32)cc1 [Example 15, (E)-N, Methyl-3-{4-[5-hydroxy-2-(4-hydroxy-phenyl)-3-methyl-indol-1-ylmethyl]-phenyl}-acrylamide]",% Activation with 1 nM 17β-estradiol,estrogen receptor [1]; 1 uM compound + 1 nM 17β-estradiol (test for estrogen antagonism),31%
same,% Activation,"estrogen receptor [1]; compound alone (1 uM), compared to 17β-estradiol",15%
same,% Activation (Compound + 1 nM 17β-estradiol),Ishikawa cells; 10^-6 M compound + 10^-9 M 17β-estradiol,5%
same,% Activation,"Ishikawa cells; compound alone, percent of response related to 1 nM 17β-estradiol",0%
same,Estrogen Receptor Affinity (reported as RBA: 17β-estradiol=100),estrogen receptor [2],53
